Source: ChEMBL document CHEMBL2412997, “Determination of the binding mode and interacting amino-acids for dibasic H3 receptor antagonists” (Bioorg Med Chem, 2013)

Key:
Histamine H3 receptor [1] = molecular target: T1, Histamine H3 receptor (Homo sapiens, UniProt Q9Y5N1); test: Binding affinity to histamine H3 receptor (unknown origin)
Histamine H3 receptor [2] = molecular target: T1, Histamine H3 receptor; test: Displacement of [125I]iodoproxyfan from histamine H3 receptor (unknown origin) expressed in CHO cells; type: cell-based

T1 sequence (Q9Y5N1 whole entry): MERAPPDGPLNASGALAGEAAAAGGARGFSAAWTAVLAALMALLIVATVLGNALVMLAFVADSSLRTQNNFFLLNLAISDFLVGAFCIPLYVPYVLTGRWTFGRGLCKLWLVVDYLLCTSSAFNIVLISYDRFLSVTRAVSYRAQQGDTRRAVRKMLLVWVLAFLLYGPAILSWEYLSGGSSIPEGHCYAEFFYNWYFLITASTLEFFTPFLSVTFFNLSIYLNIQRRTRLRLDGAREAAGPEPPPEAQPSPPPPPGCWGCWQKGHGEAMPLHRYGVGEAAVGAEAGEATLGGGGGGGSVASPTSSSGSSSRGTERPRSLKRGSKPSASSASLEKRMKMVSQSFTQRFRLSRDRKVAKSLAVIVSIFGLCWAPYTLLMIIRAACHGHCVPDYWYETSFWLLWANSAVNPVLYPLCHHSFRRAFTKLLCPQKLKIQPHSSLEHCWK

Ki (Histamine H3 receptor [1]) [nM] | Ki (Histamine H3 receptor [2]) [nM] | SMILES
1000 |  | CCN1CCCc2c(OCCCN3CCCCC3)cccc21
1000 |  | CCN1CCCc2cccc(OCCCN3CCCCC3)c21
 | 0.51 | c1cc(OCCCN2CCCCC2)ccc1Cc1ccc(OCCCN2CCCCC2)cc1
 | 1.21 | c1cc(OCCCN2CCCCC2)ccc1CCc1ccc(OCCCN2CCCCC2)cc1
 | 0.53 | O=C(/C=C/c1ccc(OCCCN2CCCCC2)cc1)c1ccc(OCCCN2CCCCC2)cc1
 | 0.13 | c1cc(-c2ccc(OCCCN3CCCCC3)cc2)ccc1OCCCCN1CCCCC1
 | 0.49 | c1cc(-c2ccc(OCCN3CCCCC3)cc2)ccc1OCCCN1CCCCC1
 | 9.31 | FC1(F)CCN(CCCOc2ccc(-c3ccc(OCCCN4CCCCC4)cc3)cc2)CC1
 | 1.64 | c1cc(-c2ccc(OCCCN3CCCCC3)cc2)ccc1CN1CCCCC1
 | 0.655 | C(=C\c1ccc(-c2ccc(OCCCN3CCCCC3)cc2)cc1)/CN1CCCCC1
 | 0.23 | CN1CCN(c2ccc(-c3ccc(OCCCN4CCCCC4)cc3)cc2)CC1
 | 0.67 | C(#Cc1ccc(-c2ccc(OCCCN3CCCCC3)cc2)cc1)CN1CCCCC1
 | 0.057 | C(=C/c1ccc(-c2ccc(OCCCN3CCCCC3)cc2)cc1)/CN1CCCCC1
 | 0.17 | c1cc(-c2ccc(OCCCN3CCCCC3)cc2)ccc1CCCN1CCCCC1
 | 0.045 | c1ccc(-c2ccc(OCCCN3CCCCC3)cc2)c(CN2CCCCC2)c1
 | 0.549 | c1cc(CN2CCCCC2)cc(-c2ccc(OCCCN3CCCCC3)cc2)c1
 | 0.64 | O=C(CCc1ccc(OCCCN2CCCCC2)cc1)c1ccc(OCCCN2CCCCC2)cc1
 | 0.9 | c1cc(OCCCN2CCCCC2)ccc1CCCc1ccc(OCCCN2CCCCC2)cc1
56 |  | N#CC(C#N)=C1N(CCCCN2CCCCC2)CCN1CCCCN1CCCCC1
1.2 |  | c1cc(-c2ccc(CCN3CCCCC3)cc2)ccc1CCN1CCCCC1
0.3 |  | c1cc(-c2ccc(CN3CCCCC3)cc2)ccc1CN1CCCCC1
61 |  | N#CC(C#N)=C1N(CCCCN2CCCCC2)CCN1CCCN1CCCCC1
